Measured values as given in patent US20190085024A1, “Alpha-Ketoamide Inhibitors Of Cysteine Proteases” (Phelix Therapeutics, priority 2017, published 2019).
pKi: −log10 of the molar value.

Legend:
Cathepsin L = Cathepsin L (Homo sapiens, UniProt P07711); assay: Cathepsin L enzyme assay; assay type: biochemical; conditions: Ki by Morrison equation; pH 5.5, substrate Z-Phe-Arg-Amc; read-out: Cat L
Excerpt: Two wells contained DMSO only for controls.
Velocity was converted to μM/sec.

Calpain = Calpain enzyme assay; assay type: biochemical; conditions: Ki by Morrison equation; pH 7.5, 5 mM CaCl2

Sequence of Cathepsin L (P07711 114-333, species assumed): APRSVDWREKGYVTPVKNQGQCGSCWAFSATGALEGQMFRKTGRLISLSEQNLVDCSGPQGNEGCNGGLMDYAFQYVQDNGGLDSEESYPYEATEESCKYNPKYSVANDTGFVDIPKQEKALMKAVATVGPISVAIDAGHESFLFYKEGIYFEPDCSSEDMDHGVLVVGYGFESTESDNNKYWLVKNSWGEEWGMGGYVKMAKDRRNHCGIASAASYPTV

Row | pKi (Cathepsin L) | pKi (Calpain) | SMILES
1 | 7.55 | 7.63 | CCC(C)C(NC(=O)C(CC(C)C)NC(=O)OCc1ccccc1)C(=O)C(=O)NC(CCCNC(N)=O)C(N)=O (stereo not shown) [PHELIX341, benzyl (1-((1-((1-amino-1-oxo-5-ureidopentan-2-yl)amino)-4-methyl-1,2-dioxohexan-3-yl)amino)-4-methyl-1-oxopentan-2-yl)carbamate]
2 | 7.50 | 7.69 | CCC(C)C(NC(=O)C(CC(C)C)NC(=O)OCc1ccccc1)C(=O)C(=O)NC(Cc1ccncc1)C(N)=O (stereo not shown) [PHELIX342, benzyl (1-((1-((1-amino-1-oxo-3-(pyridin-4-yl)propan-2-yl)amino)-4-methyl-1,2-dioxohexan-3-yl)amino)-4-methyl-1-oxopentan-2-yl)carbamate]
3 | 8.45 | 7.47 | CCC(C)C(NC(=O)C(CC(C)C)NC(=O)OCc1ccccc1)C(=O)C(=O)NC(Cc1cc2ccccc2[nH]1)C(N)=O (stereo not shown) [PHELIX343, benzyl (1-((1-((1-amino-3-(1H-indol-2-yl)-1-oxopropan-2-yl)amino)-4-methyl-1,2-dioxohexan-3-yl)amino)-4-methyl-1-oxopentan-2-yl)carbamate]
4 | 7.69 | 7.57 | CC[C@H](C)C(NC(=O)[C@H](CC(C)C)NC(=O)OCc1ccccc1)C(=O)C(=O)N[C@@H](Cc1cccnc1)C(N)=O (stereo partly shown) [PHELIX344]

Second part, the molecule before the results:

Row | SMILES | pKi (Cathepsin L) | pKi (Calpain)
5 | CCC(C)C(NC(=O)C(CC(C)C)NC(=O)Cc1ccncc1)C(=O)C(=O)NCC(=O)NC(Cc1ccc2ccccc2c1)C(N)=O (stereo not shown) [PHELIX333, N-(2-((1-amino-3-(naphthalen-2-yl)-1-oxopropan-2-yl)amino)-2-oxoethyl)-4-methyl-3-(4-methyl-2-(2-(pyridin-4-yl)acetamido)pentanamido)-2-oxohexanamide] | 9.23 | 9.01
6 | CCC(C)C(NC(=O)C(CC(C)C)NC(=O)NCc1ccccc1)C(=O)C(=O)NCC(=O)NC(Cc1ccc2ccccc2c1)C(N)=O (stereo not shown) [PHELIX334, N-(2-((1-amino-3-(naphthalen-2-yl)-1-oxopropan-2-yl)amino)-2-oxoethyl)-3-(2-(3-benzylureido)-4-methylpentamido)-4-methyl-2-oxohexanamide] | 9.37 | 9.17
7 | CCC(C)C(NC(=O)C(CC(C)C)NC(=O)Nc1ccccc1)C(=O)C(=O)NCC(=O)NC(Cc1ccc2ccccc2c1)C(N)=O (stereo not shown) [PHELIX335, N-(2-((1-amino-3-(naphthalen-2-yl)-1-oxopropan-2-yl)amino)-2-oxoethyl)-4-methyl-3-(4-methyl-2-(3-phenylureido)pentanamido)-2-oxohexanamide] | > 9.82 | 8.84
8 | CCC(C)C(NC(=O)C(CC(C)C)NC(=O)OCc1ccccc1)C(=O)C(=O)NC(CC#N)C(=O)NC(Cc1ccc2ccccc2c1)C(N)=O (stereo not shown) [PHELIX336, benzyl (1-((1-((1-((1-amino-3-(naphthalen-2-yl)-1-oxopropan-2-yl)amino)-3-cyano-1-oxopropan-2-yl)amino)-4-methyl-1,2-dioxohexan-3-yl)amino)-4-methyl-1-oxopentan-2-yl)carbamate] | 8.39 | 7.47
9 | CC[C@H](C)C(NC(=O)[C@H](CC#N)NC(=O)Cc1ccccc1)C(=O)C(=O)NCC(=O)N[C@@H](Cc1ccc2ccccc2c1)C(N)=O (stereo partly shown) [PHELIX337, N-(2-((1-amino-3-(naphthalen-2-yl)-1-oxopropan-2-yl)amino)-2-oxoethyl)-3-(3-cyano-2-(2-phenylacetamido)propanamido)-4-methyl-2-oxohexanamide] | 8.07 | 6.65
10 | CCC(C)C(NC(=O)C(CC(C)C)NC(=O)OCc1ccccc1)C(=O)C(=O)NC(CCCNC(N)=O)C(N)=O (stereo not shown) [PHELIX340, benzyl (1-((1-((1-amino-1-oxo-5-ureidopentan-2-yl)amino)-4-methyl-1,2-dioxohexan-3-yl)amino)-4-methyl-1-oxopentan-2-yl)carbamate] | 8.41 | 7.77
11 | CCC(C)C(NC(=O)C(CC(C)C)NC(=O)C(Cc1ccccc1)NC(C)=O)C(=O)C(=O)NC(CCCNC(=N)N)C(N)=O (stereo not shown) [PHELIX345] | 7.95 | 7.43
